# Test results from patent publication US12156920B2, “Double-labeled probe for molecular imaging and use thereof” (Deutsches Krebsforschungszentrum, priority 2017, dated 2024).
# Where “and” joins values, the source holds several entries; their conditions need not be identical. Equal values may be shown once.
# Legend:
# [1] = Biodistribution (organ distribution) of 68Ga-labeled compounds; format: in vivo, mice; details: male, BALB/c nu/nu, mouse, in vivo, iv, 60 pmol, total radioactivity
# Procedure: (§1) The precursor peptides [1 nmol in HEPES buffer (580 mg/ml), 90 μL] were added to 40 μL [^68Ga]Ga^3+ eluate (˜40 MBq). The pH was adjusted to 3.8 using 30% NaOH and 10% NaOH, respectively. The reaction mixture was incubated at 98° C. for 10 minutes. The radiochemical yield (RCY) was determined by HPLC. For the experimental tumor models 5×10^6 cells of LNCaP (in 50% Matrigel; Becton Dickinson, Heidelberg, Germany) were subcutaneously inoculated into the right trunk of 7- to 8-week-old male BALB/c nu/nu mice (Charles River). The tumors were allowed to grow until approximately 1 cm^3 in size. The ^68Ga-labeled compounds were injected into a tail vein (1-2 MBq; 60 pmol). […] Organs of interest were dissected, blotted dry, and weighed. The radioactivity was measured using a gamma counter and calculated as % ID/g. All animal experiments complied with the current laws of the Federal Republic of Germany.
# PSMA+ LNCaP cells = test: Internalization experiments (specific cell surface bound and internalized fractions); format: cell-based; details: 68Ga-labeled compound 30 nM, 45 min
# Procedure: (§2) PSMA^+ LNCaP cells (ATCC CRL-1740) were cultured in RPMI medium supplemented with 10% fetal calf serum and 2 mmol/L L-glutamine (all from PAA). Cells were grown at 37° C. in humidified air with 5% CO2 and were harvested using trypsin-ethylenediaminetetraacetic acid (trypsin-EDTA; 0.25% trypsin, 0.02% EDTA, Invitrogen).
# For internalization experiments, 10^5 cells per well were seeded in poly-L-lysine coated 24-well cell culture plates 24 h before incubation. After washing, the cells were incubated with 30 nM of the radiolabeled compound for 45 min at 37° C. and at 4° C., respectively. Cellular uptake was terminated by washing 3 times with 1 mL of ice-cold PBS. To remove surface-bound radioactivity, cells were incubated twice with 0.5 mL glycine-HCl in PBS (50 mM, pH=2.8) for 5 min. The cells were washed with 1 mL of ice-cold PBS and lysed using 0.3 N NaOH (0.5 mL). The surface-bound and the internalized fractions were measured in a gamma counter. The cell uptake was calculated as percent of the initially added radioactivity bound to 10^5 cells [% ID/10^5 cells].
# [2] = test system: LNCaP-tumor bearing balb/c nu/nu mice; test: Biodistribution (organ distribution) of 68Ga-labeled compounds; format: in vivo; details: 68Ga labeled
# Procedure: as §1
# PSMA = target: T1, PSMA (Homo sapiens, UniProt Q04609); test: Competitive cell binding assay on LNCaP cells (PSMA binding affinity); details: competition against 0.2 nM 68Ga-labeled PSMA-10
# T1 construct: endogenous in cells; host or cells: LNCaP cells (ATCC CRL-1740)
# Procedure: as §2
# The competitive cell binding assay and internalization experiments were performed as described previously (4). Briefly, the cells (10^5 per well) were incubated with a 0.2 nM solution of ^68Ga-labeled radioligand [Glu-urea-Lys(Ahx)]2-HBED-CC (PSMA-10, precursor ordered from ABX, Radeberg, Germany) in the presence of 12 different concentrations of analyte (0-5000 nM, 100 μL/well). After incubation, the mixture was removed and the wells were washed 3 times with PBS using a multiscreen vacuum manifold (Millipore, Billerica, Mass.). Cell-bound radioactivity was measured using a gamma counter (Packard Cobra II, GMI, Minnesota, USA). The 50% inhibitory concentration (IC50) values were calculated by fitting the data using a nonlinear regression algorithm (GraphPad Software).
# T1 sequence (Q04609 whole entry): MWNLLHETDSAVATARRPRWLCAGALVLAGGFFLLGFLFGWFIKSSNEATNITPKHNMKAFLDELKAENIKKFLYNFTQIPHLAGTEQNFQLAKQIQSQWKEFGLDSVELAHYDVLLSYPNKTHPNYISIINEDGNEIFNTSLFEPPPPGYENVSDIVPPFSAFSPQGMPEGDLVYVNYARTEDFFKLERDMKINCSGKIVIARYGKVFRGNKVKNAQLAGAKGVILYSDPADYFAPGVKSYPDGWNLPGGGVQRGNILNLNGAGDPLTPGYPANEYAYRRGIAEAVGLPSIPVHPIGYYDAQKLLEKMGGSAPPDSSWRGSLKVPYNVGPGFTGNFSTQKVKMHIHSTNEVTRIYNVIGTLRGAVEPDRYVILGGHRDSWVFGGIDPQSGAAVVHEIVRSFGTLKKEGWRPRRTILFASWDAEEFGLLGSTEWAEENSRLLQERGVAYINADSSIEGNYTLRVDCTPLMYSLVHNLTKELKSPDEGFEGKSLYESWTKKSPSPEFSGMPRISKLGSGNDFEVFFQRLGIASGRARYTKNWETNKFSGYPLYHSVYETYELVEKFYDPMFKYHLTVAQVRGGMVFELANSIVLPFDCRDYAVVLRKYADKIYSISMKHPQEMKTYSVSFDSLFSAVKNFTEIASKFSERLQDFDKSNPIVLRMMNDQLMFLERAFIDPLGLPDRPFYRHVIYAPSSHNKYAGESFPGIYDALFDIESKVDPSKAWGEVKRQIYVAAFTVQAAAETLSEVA
smiles,measurement,setting,value
"CC1(C)C(/C=C/C2=C(Oc3ccc(S(=O)(=O)O)cc3)C(=C\C=C3/N(CCCCS(=O)(=O)O)c4ccc(S(=O)(=O)O)cc4C3(C)C)/CCC2)=[N+](CCCCCC(=O)NCCOCCOCCNC(=O)CCc2ccc(O)c(CN(CCN(CC(=O)O)Cc3cc(CCC(=O)NCc4cn(CCCCC(=O)NC(CCC(=O)O)C(=O)NC(Cc5c[nH]c6ccccc56)C(=O)NCCCCC(NC(=O)NC(CCC(=O)O)C(=O)O)C(=O)O)nn4)ccc3O)CC(=O)O)c2)c2ccc(S(=O)(=O)O)cc21 (stereo not drawn) [PSMA-(WE)1-HBED-CC-PEG2-IRDye800CW, Glu-urea-Lys-(WE)1-HBED-CC-PEG2-IRDye800CW]",tissue uptake at 1 h,[1]; Organ distribution Blood,1.61 %ID/g
same,tissue uptake at 1 h,[1]; Organ distribution Brain,0.15 %ID/g
same,tissue uptake at 1 h,[1]; Organ distribution Heart,1.49 %ID/g
same,tissue uptake at 1 h,[1]; Organ distribution Intestine,0.96 %ID/g
same,tissue uptake at 1 h,[1]; Organ distribution Kidney,105 %ID/g
same,tissue uptake at 1 h,[1]; Organ distribution Liver,1.73 %ID/g
same,tissue uptake at 1 h,[1]; Organ distribution Lung,2.57 %ID/g
same,tissue uptake at 1 h,[1]; Organ distribution Muscle,1 %ID/g
same,tissue uptake at 1 h,[1]; Organ distribution Spleen,12.9 %ID/g
same,tissue uptake at 1 h,[1]; Organ distribution Tumor (tumor accumulation),3.85 %ID/g
same,tissue to tissue ratio at 1 h,[1]; Tumor-to-Organ ratio T/Blood,2.39
same,tissue to tissue ratio at 1 h,[1]; Tumor-to-Organ ratio T/Brain,25.6
same,tissue to tissue ratio at 1 h,[1]; Tumor-to-Organ ratio T/Heart,2.59
same,tissue to tissue ratio at 1 h,[1]; Tumor-to-Organ ratio T/Intestine,4.01
same,tissue to tissue ratio at 1 h,[1]; Tumor-to-Organ ratio T/Kidney,0.04
same,tissue to tissue ratio at 1 h,[1]; Tumor-to-Organ ratio T/Liver,2.23
same,tissue to tissue ratio at 1 h,[1]; Tumor-to-Organ ratio T/Lung,1.5
same,tissue to tissue ratio at 1 h,[1]; Tumor-to-Organ ratio T/Muscle,3.86
same,tissue to tissue ratio at 1 h,[1]; Tumor-to-Organ ratio T/Spleen,0.3
"O=C(O)CCc1ccc(O)c(CN(CCN(CC(=O)O)Cc2cc(CCC(=O)NCCCCCC(=O)NCCCCC(NC(=O)NC(CCC(=O)O)C(=O)O)C(=O)O)ccc2O)CC(=O)O)c1 (stereo not drawn) [PSMA-11, Glu-urea-Lys-(Ahx)-HBED-CC, reference compound]",Specific cell surface bound,PSMA+ LNCaP cells,2.31 ± 0.61 % ID/10^5 cells
same,Specific internalized,PSMA+ LNCaP cells,3.57 ± 0.51 % ID/10^5 cells
same,Organ distribution Liver,[2],0.34 % ID/g
same,Organ distribution Lung,[2],1.19 % ID/g
same,Tumor-to-Organ ratio T/Blood,[2]; 1 h p.i.,9.23
same,Tumor-to-Organ ratio T/Brain,[2]; 1 h p.i.,12.23
same,Tumor-to-Organ ratio T/Heart,[2]; 1 h p.i.,5.89
same,Tumor-to-Organ ratio T/Intestine,[2]; 1 h p.i.,4.29
same,Tumor-to-Organ ratio T/Kidney,[2]; 1 h p.i.,0.04
same,Tumor-to-Organ ratio T/Liver,[2]; 1 h p.i.,3.42
same,Tumor-to-Organ ratio T/Lung,[2]; 1 h p.i.,2.07
same,Tumor-to-Organ ratio T/Muscle,[2]; 1 h p.i.,4.89
same,Tumor-to-Organ ratio T/Spleen,[2]; 1 h p.i.,0.27
same,Organ distribution Tumor (tumor accumulation),"[2]; 1 h p.i., LNCaP tumor",4.89±1.34 % ID/g and 4.89 % ID/g
same,Organ distribution Blood,"[2]; 1 h p.i., tail vein",0.53 % ID/g
same,Organ distribution Brain,"[2]; 1 h p.i., tail vein",0.40 % ID/g
same,Organ distribution Heart,"[2]; 1 h p.i., tail vein",0.83 % ID/g
same,Organ distribution Intestine,"[2]; 1 h p.i., tail vein",1.14 % ID/g
same,Organ distribution Kidney,"[2]; 1 h p.i., tail vein",139.44 % ID/g
same,Organ distribution Liver,"[2]; 1 h p.i., tail vein",1.43 % ID/g
same,Organ distribution Lung,"[2]; 1 h p.i., tail vein",2.36 % ID/g
same,Organ distribution Muscle,"[2]; 1 h p.i., tail vein",1.00 % ID/g
same,Organ distribution Spleen,"[2]; 1 h p.i., tail vein",17.88 % ID/g
same,Organ distribution Blood,[2]; 2 h p.i.,0.32 % ID/g
same,Organ distribution Brain,[2]; 2 h p.i.,0.23 % ID/g
same,Organ distribution Heart,[2]; 2 h p.i.,0.31 % ID/g
same,Organ distribution Intestine,[2]; 2 h p.i.,1.19 % ID/g
same,Organ distribution Kidney,[2]; 2 h p.i.,129.73 % ID/g
same,Organ distribution Muscle,[2]; 2 h p.i.,2.06 % ID/g
same,Organ distribution Spleen,[2]; 2 h p.i.,12.41 % ID/g
same,Organ distribution Tumor,"[2]; 2 h p.i., LNCaP tumor",6.09 % ID/g
same,Ki,PSMA,9.82 ± 1.26 nM
